Measurements from patent publication US9546196B2, “Compositions and methods of treatment of cancers” (The University of Toledo, priority 2009, dated 2017).
Ends that are not written are not given here. Peptide text beside a SMILES is read from it. * marks the point of attachment. Cbz = O=C(OCc1ccccc1)*; CH2F = FC*

Experiments:
[1] = test system: p53 transcriptional activity; test: p53-Luc reporter assay, sGCα1-mediated repression of p53 transcriptional activity in LNCaP cells; type: cell-based
Source text: FIGS. 1A-1F: Over-expression of sGCα1 inhibits p53 transcriptional activity. p53 activity was quantified by measuring luciferase activity. Bar graphs represent the average of three independent experiments plus standard deviation. All cells received the same amount of transfected expression plasmid and that pCH110 was used to control transfection efficiency.
FIGS. 2A-2F: The sGCα1-mediated repression of p53 transcriptional activity is independent of mediators of NO signaling and guanylyl cyclase activity. Androgen-dependent LNCaP cells were transfected with 0.5 μg pCH110, 0.1 μg p53-Luc reporter plasmid, and subjected to different treatments:
FIG. 2A: Cells were transfected with 0.5 μg pCH110, 0.1 μg p53-Luc reporter plasmid, and subjected to […] ODQ.
FIG. 2C: Cells were treated with different concentrations of C-PTIO.
FIG. 2D: Cells were treated with different concentrations of SNP.
FIG. 2E: Cells were treated with different concentrations of 8-Br-cGMP.
(§1) To determine whether nitric oxide (NO) signaling is involved in sGCα1-mediated repression of p53 transcriptional activity, NO interfering drugs were used.
Supporting this finding, the NO donor SNP had no effect (FIG. 2D).

LNCaP cells [2] = test: LNCaP cell viability with etoposide, MTT assay; type: cell-based; settings: 10 μM etoposide, two days
Procedure: FIG. 7B: Over-expression of sGCα1 protects prostate cancer cells from the lethal effects of etoposide. LNCaP cells were infected with control empty adenovirus (−sGCα1; 20 MOI) or sGCα1-expressing adenovirus (+sGCα1; 2 or 20 MOI) and treated with 10 μM etoposide. After two days of incubation, cell number was quantified by MTT assay. Bar graphs represent averages of three independent experiments plus standard deviations. All activities are relative to the first condition, and this activity was set to 100%.
LNCaP cells were infected with an sGCα1-expressing adenovirus and treated with etoposide, an inducer of apoptosis. […] This finding, together, with the PCR array data showing that sGCα1 can regulate Survivin expression, is consistent with results showing that Survivin desensitizes prostate cancer cells to etoposide.

LNCaP cell culture = type: cell-based
Source text: In one non-limiting example, Peptide A-8R [SEQ ID NO: 1] can be truncated to a smaller peptide that retains the same type of biological activity profile. In certain embodiments, truncating Peptide A-8R [SEQ ID NO: 1] results in greater potency upon conversion of some of the pharmacophore functionalities to peptidomimetic groups that can, in turn, enhance key interactions by lowering the net binding energy. In one experiment, Peptide A-8R [SEQ ID NO: 1] was divided into two parts, using the central proline residue as the division point. […] A minimum number of amino acids desired for cytotoxicity was then identified. […] The following Peptide A truncated and derivative probes were synthesized and evaluated for their effect on cytotoxicity after 3- and 6-day exposures:
The following table lists cell culture data for truncated Peptide A peptides. The amino acid sequences and IC50 values in μM concentrations depict cytotoxicity after 3- and 6-day exposures (“NotA” means not active). “8R” [SEQ ID NO: 6] signifies that 8 arginines are present on the carboxy terminus to mediate membrane translocation. The data has shown that the 8R terminus [SEQ ID NO: 6] can be either as the free carboxy (—OH) or amide (—NH2) with no alteration of permeation or observed activity.
The table below lists LNCaP cell culture data for various Peptide A derivatives, displaying the observed IC50 values in μM concentrations after 3- and 6-day exposures.

MDM2 = test: Western blotting of MDM2 in LNCaP nuclear and cytosolic extracts; type: cell-based; settings: LNCaP cells
Procedure: FIG. 4B: Nuclear (N) and cytosolic (C) extracts were prepared from LNCaP cells and Western blotting was used to measure protein levels of MDM2, p53, JAB1, and sGCα1. β-actin was used as loading control.
LNCaP cells were infected with an sGCα1-expressing adenovirus or control empty virus and p53 subcellular localization was measured by Western blotting following cell fractionation.

sGC = sGC (Homo sapiens, UniProt Q02153); test: sGC-catalyzed cGMP synthesis (data not shown); type: biochemical; settings: the two ODQ concentrations
Sequence of sGC (Q02108 whole entry partner): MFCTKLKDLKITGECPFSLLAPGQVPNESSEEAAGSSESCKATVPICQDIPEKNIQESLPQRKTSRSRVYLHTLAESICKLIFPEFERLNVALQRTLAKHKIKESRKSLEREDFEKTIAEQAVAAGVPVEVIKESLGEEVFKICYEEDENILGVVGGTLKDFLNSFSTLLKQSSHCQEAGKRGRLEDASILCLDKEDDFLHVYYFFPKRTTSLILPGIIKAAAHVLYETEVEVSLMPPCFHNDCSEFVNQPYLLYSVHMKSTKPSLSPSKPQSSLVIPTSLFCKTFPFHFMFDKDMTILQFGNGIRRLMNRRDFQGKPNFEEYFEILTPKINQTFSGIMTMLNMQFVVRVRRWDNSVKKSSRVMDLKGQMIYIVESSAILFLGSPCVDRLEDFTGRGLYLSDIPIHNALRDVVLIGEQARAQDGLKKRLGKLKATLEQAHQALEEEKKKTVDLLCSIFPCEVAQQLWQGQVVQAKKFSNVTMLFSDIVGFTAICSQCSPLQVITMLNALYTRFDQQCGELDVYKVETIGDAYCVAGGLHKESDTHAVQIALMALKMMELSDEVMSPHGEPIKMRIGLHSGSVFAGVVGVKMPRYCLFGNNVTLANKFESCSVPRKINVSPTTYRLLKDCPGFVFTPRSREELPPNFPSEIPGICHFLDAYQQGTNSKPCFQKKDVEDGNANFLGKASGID
Sequence of sGC (Q02153 whole entry): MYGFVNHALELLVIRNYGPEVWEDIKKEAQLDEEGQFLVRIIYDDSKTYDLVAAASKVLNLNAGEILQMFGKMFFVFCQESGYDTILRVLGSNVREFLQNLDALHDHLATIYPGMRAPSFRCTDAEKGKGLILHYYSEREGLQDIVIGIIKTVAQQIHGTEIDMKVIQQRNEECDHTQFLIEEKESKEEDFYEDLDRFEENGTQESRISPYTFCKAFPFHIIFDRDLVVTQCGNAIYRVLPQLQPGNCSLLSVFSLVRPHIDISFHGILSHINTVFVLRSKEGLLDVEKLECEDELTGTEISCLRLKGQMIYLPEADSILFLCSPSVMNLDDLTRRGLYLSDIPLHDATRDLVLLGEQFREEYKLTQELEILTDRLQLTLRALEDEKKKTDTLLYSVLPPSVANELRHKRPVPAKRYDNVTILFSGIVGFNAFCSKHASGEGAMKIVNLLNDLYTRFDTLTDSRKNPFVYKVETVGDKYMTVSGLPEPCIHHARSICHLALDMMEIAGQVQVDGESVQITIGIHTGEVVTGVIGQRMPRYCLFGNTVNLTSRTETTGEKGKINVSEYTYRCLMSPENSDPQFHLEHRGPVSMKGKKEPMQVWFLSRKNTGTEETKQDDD
Source text: as §1

sGCα1 = test: Western blotting of sGCα1 expression in VCaP cells; type: cell-based; settings: 1 nM R1881
Procedure: FIG. 11A: VCaP cells were treated with or without 1 nM R1881 and Western blotting was used to measure expression of sGCα1. β-actin was used as a loading control.

LNCaP cells [3] = test: Relief of Peptide A-8R cytotoxicity by pan-caspase inhibitor in LNCaP cells; type: cell-based; settings: 4 hrs
Procedure: FIG. 18B: LNCaP cells were grown for 4 hrs in the presence of increasing concentration of Peptide A-8R [SEQ ID NO: 1] with or without […] Z-VAD-FMK and then cell density was measured.
To determine if the cytotoxicity of Peptide A-8R [SEQ ID NO: 1] is through apoptosis, LNCaP cells were monitored for Caspase 3/7 activity. […] Thus, Peptide A-8R [SEQ ID NO: 1] was able to induce Caspase 3/7 activity much faster than the well-studied apoptosis-inducing drug Etoposide. To confirm that the Peptide was killing cells via apoptosis, the inventors used the pan-caspase inhibitor Z-VAD-FMK.

LNCaP cells [4] = type: cell-based; settings: increasing concentration of peptide, days; with or without 1 nM R1881
Procedure: FIG. 12B: LNCaP cells were grown without androgen for 2 or 4 days in the presence of increasing concentration of Peptide A-8R [SEQ ID NO: 1] (upper left), Peptide B-8R [SEQ ID NO: 2] (upper right), Peptide C-8R [SEQ ID NO: 3] (lower left), or Peptide D-8R [SEQ ID NO: 4] (lower right). The MTT reagent was used to measure cell density.
FIG. 13A: LNCaP cells were grown with (Right) or without (Left) 1 nM androgen ([…]) for 3 or 6 days in the presence of increasing concentration of Peptide A-8R [SEQ ID NO: 1] or vehicle (70% DMSO). The MTT reagent was used to measure cell density.
FIG. 13B: LNCaP cells were grown with (Right) or without (Left) 1 nM androgen (R1881) for 3 or 6 days in the presence of increasing concentration of Peptide C-8R [SEQ ID NO: 3] or vehicle and then cell density was measured.
FIG. 14A: LNCaP cells were grown with (Right) or without (Left) 1 nM R1881 for 3 or 6 days in the presence of increasing concentration of Peptide A or vehicle and then cell density was measured.
FIG. 14B: LNCaP cells were grown with (Right) or without (Left) 1 nM R1881 for 3 or 6 days in the presence of increasing concentration of Peptide A-8R [SEQ ID NO: 1] or vehicle and then cell density was measured.
FIG. 15A: LNCaP cells were grown for 1-8 hrs in the presence of 10 μM Peptide A-8R [SEQ ID NO: 1] or vehicle and then cell density was measured.
FIG. 19C: LNCaP cells were grown with for 12 or 48 hrs in the presence of increasing concentration of Peptide A-8R [SEQ ID NO: 1] (Left) or PeptideA-8R-Biotin [SEQ ID NO: 1] (Right) and then cell density was measured.
Each peptide contained 8 arginines at the C-terminus, a sequence which is known to mediate plasma membrane translocation and cellular internalization.
To measure how rapid the cytotoxic effect of Peptide A-8R [SEQ ID NO: 1] occurs, LNCaP cells were treated with 10 μM peptide and incubated for 1-8 hrs. […] Using the same conditions, C81 cells were used to study the peptide effect on hormone-refractory prostate cancer cells.

Compound | cytotoxicity / activity in cells (in words) (LNCaP cell culture) | Cytotoxicity (LNCaP cell culture) | further results
CC1(C)N([O])C(c2ccc(C(=O)O)cc2)=[N+]([O-])C1(C)C [C-PTIO] | – | – | p53 activity ([1]; 100 nM of drug): inhibit p53 activity
COc1cc([C@@H]2c3cc4c(cc3[C@@H](O[C@@H]3O[C@@H]5CO[C@@H](C)O[C@H]5[C@H](O)[C@H]3O)[C@H]3COC(=O)[C@H]23)OCO4)cc(OC)c1O [Etoposide] | – | – | viability of LNCaP cells (LNCaP cells [2]): significantly reduced
C[C@H](NC(=O)[C@H](CCCCN)NC(=O)[C@H](CS)NC(=O)[C@@H](N)Cc1ccccc1)C(=O)O [FA4, FCKA] (H-FCKA-OH) | diminished but yet still significant cytotoxicity | – | –
CC(C)C[C@@H](C=O)NC(=O)[C@H](CC(C)C)NC(=O)[C@H](CC(C)C)NC(=O)OCc1ccccc1 [MG132] (Cbz-Leu-Leu-Leu-aldehyde) | – | – | MDM2 cytoplasmic levels (MDM2): significantly enhanced
O=c1onc2cnc3ccccc3n12 [ODQ] | – | – | sGC-catalyzed cGMP synthesis (sGC): strongly inhibited; effect on sGCα1-mediated repression of p53 ([1]; 5 or 50 mM ODQ): no effect
Nc1nc2c(nc(Br)n2[C@@H]2O[C@@H]3COP(=O)(O)O[C@H]3[C@H]2O)c(=O)[nH]1 [Peptide 8-Br-cGMP, 8-Br-cGMP] | – | – | p53 transcriptional activity ([1]; different concentrations): weakly enhanced
C[C@]1(O)CC[C@H]2[C@@H]3CCC4=CC(=O)CCC4=C3C=C[C@@]21C [Peptide R1881, R1881] | – | – | sGCα1 protein expression (sGCα1): significantly induced
C[C@@H](O)[C@H](N)C(=O)N[C@@H](Cc1ccccc1)C(=O)N[C@@H](CS)C(=O)O [TC3, TFC] (H-Thr-Phe-Cys-OH) | diminished but yet still significant cytotoxicity | – | –
COC(=O)C[C@H](NC(=O)[C@H](C)NC(=O)[C@@H](NC(=O)OCc1ccccc1)C(C)C)C(=O)CF [Z-VAD-FMK] (Cbz-Val-Ala-Asp(OMe)-CH2F) | – | – | effect on Vehicle-treated cells (LNCaP cells [3]; 40 mM Z-VAD-FMK): no significant effect; relief of the Peptide A-8R cytotoxic effect (LNCaP cells [3]; pretreatment with 40 mM Z-VAD-FMK, peptide up to 50 μM): complete relief
ACKAFRRRRRRRR-NH2 [AF5-8R] | – | Yes | –
Ac-LRLKGQMIYLRRRRRRRR-OH [Peptide B-8R] | – | – | effect on LNCaP cell growth / cytotoxicity (in words) (LNCaP cells [4]): stopped the growth
Ac-PLHDATRDLVRRRRRRRR-OH [Peptide C-8R] | – | – | effect on LNCaP cell growth / cytotoxicity (in words) (LNCaP cells [4]): no effect
Ac-TFCKAFPFHII [Peptide A] | – | – | effect on LNCaP cell growth / cytotoxicity (in words) (LNCaP cells [4]): no effect
CKAFRRRRRRRR-NH2 [Peptide CF4-8R] | lower-level activities retained | Yes | –
FAKAFRRRRRRRR-NH2 [Peptide FF5-C2A-8R] | dramatically reduced activity | Yes | –
FCAAFRRRRRRRR-NH2 [FF5-K3M-8R] | – | Yes | –

Compound | cytotoxicity / activity in cells (in words) (LNCaP cell culture) | Cytotoxicity (LNCaP cell culture) | further results
FCKAARRRRRRRR-NH2 [FA5-8R] | – | Yes | –
FCKAF [FF5-OH, FCKAF] | – | No | –
FCKAF [FF5] | inactive | – | –
FCKAF-NH2 [FF5-NH2, FCKAF] | – | No | –
FCKAFPRRRRRRRR-NH2 [Peptide FP6-8R] | – | Yes | –
FCKAFRRRRRRRR-NH2 [Peptide FF5-8R] | – | Yes | –
FCKARRRRRRRR [Peptide FA4-8R] | lower-level activities retained | Yes | –
FMKAFRRRRRRRR-NH2 [Peptide FF5-C2M-8R] | significant activity was retained | Yes | –
KAFPFHRRRRRRRR [Peptide KH6-8R] | – | No | –
KAFPRRRRRRRR [Peptide KP4-8R] | – | No | –
PFHII [PI5, PFHII] | no activity | – | –
PFHIIRRRRRRRR-NH2 [Peptide PI5-8R] | – | No | –
TFCKAFP [TP7, TFCKAFP] | retained cytotoxicity | – | –
TFCKAFPRRRRRRRR-NH2 [Peptide TP7-8R] | – | Yes | –
TFCKAFRRRRRRRR-NH2 [Peptide TF6-8R] | quite comparable | Yes | –
TFCRRRRRRRR [Peptide TC3-8R] | lower-level activities retained | Yes | –
